US8557958B1, “Compositions and methods for treatment of diabetes” (Tarix Pharmaceuticals Ltd., priority 2012, dated 2013)
Entries after “also recorded” stand apart in the source; their conditions may differ. Bridge positions count the residues as written; N and C are the ends. Ends that are not written are not given here.

What was measured:
diabetic mouse model = conditions: Bindom et al. 2010; cited from earlier work
[1] = tested on: streptozotocin (STZ) induced diabetic mouse model; assay: Blood glucose in STZ induced diabetic mouse model (Example 2); type: in vivo, mouse (C57Bl/6); conditions: for Blood Glucose (Mean): 50 μg/kg SC once daily; for Blood glucose levels as compared to vehicle treated group: 50 μg/kg body weight SC for twenty eight days
Protocol: C57Bl/6 female mice, 6-7 weeks old were used for the study and conditions were the same as for Example 1 above unless otherwise specified. Following acclimatization, mice were dosed intraperitoneally (IP) with 50 mg/kg STZ solubilized in 0.05 M sodium citrate buffer at a volume of 100 μl per mouse for five consecutive days. Blood Glucose levels were monitored on day 6 post STZ using Accu check glucose meter. Mice were grouped having average blood glucose levels of 200 mg/dL. There were three groups of ten mice each. Mice were dosed subcutaneously with Linear PanCyte (SEQ ID NO:6), PanCyte or vehicle for twenty-eight days. […]
Linear PanCyte and PanCyte were prepared in saline and administrated subcutaneously at a dose volume of 100 μl/mouse daily for twenty-eight days. Dosing solutions were prepared fresh every three days.
The blood glucose level was lowest in the groups treated with PanCyte 50 μg/kg followed by Linear-PanCyte 50 μg/kg.

[2] = tested on: streptozotocin (STZ) induced diabetic mouse model; assay: Blood glucose in STZ induced diabetic mouse model (Example 1); type: in vivo, mouse (C57Bl/6); conditions: 50 and 500 μg/kg body weight; monitored 3×/week for 4 weeks post STZ; FIG. 1
Text: Streptozotocin is a widely used chemical agent for producing Type-I Diabetes in experimental animals. The chemical is thought to cause Diabetes by direct action on the pancreatic beta cells and inhibits the insulin secretory mechanism. Depending upon the dosing regimen, streptozotocin can cause a mild, moderate, or severe diabetic condition.
C57Bl/6 female, 7-8 weeks old were used for the study. Upon arrival, mice were 6 weeks of age. All the mice were obtained from The Jackson Laboratory, Bar Harbor, Me. 04609, USA.
(§1) Following acclimatization, mice were dosed intraperitoneally (IP) with 50 mg/kg STZ solubilized in 0.05 M sodium citrate at a volume of 100 μl per mouse for five consecutive days. Blood Glucose levels were monitored beginning day 4 post STZ using a glucose meter (Accu-Chek Advantage from Roche). On day six (after five days of STZ injection) mice were grouped into four groups having average blood glucose levels of 200 mg/dL. Two groups were dosed with PanCyte (SEQ ID NO:22) 50 and 500 μg/kg body weight respectively, one group was dosed with TXA-127 (SEQ ID NO:1) 500 ug/kg, and one group was dosed with PBS as vehicle control.
Blood glucose was be monitored 3×/week for 4 weeks post STZ. Blood glucose levels was be monitored using a glucose meter by placing a drop of blood directly on to the meter strip, and measuring according to manufacturer's instructions.

[3] = tested on: streptozotocin (STZ) induced diabetic mouse model; assay: Plasma insulin levels by mouse insulin ELISA in STZ induced diabetic mouse model (Example 1); type: in vivo, mouse (C57Bl/6); conditions: for Plasma insulin levels as compared to vehicle treated control: days 14 and 28; for Insulin (Mean): plasma
Protocol: as §1
Plasma insulin levels were measured on days 14 and 28 after treatment. Blood samples (approximately 50 to 100 ul) were collected and processed for plasma by centrifugation. Plasma samples were then used for the measurement of insulin levels using a mouse sensitive insulin ELISA kit (ALPCO Diagnostic), according the to manufacturer's instructions.

adipocytes = conditions: administered directly to adipocytes in vitro; Liu, C. et al. 2011; cited from earlier work
[4] = dose 500 μg (500 μg/kg body weight), day 14 after treatment
[5] = dose 500 μg (500 μg/kg body weight), day 28 after treatment

Substance: D-Ala^7-Ang-(1-7)
- Effect on the decrease in blood glucose and increase in insulin levels seen with ACE2 expression (diabetic mouse model): blocked the decrease in blood glucose

Substance: Asp^1-Arg^2-Val^3-Ser^4-Ile^5-His^6-Cys^7 [Linear-PanCyte] (DRVSIHC; linear)
- Blood Glucose (Mean) ([1]; day 1): 222.8 mg/dL
- Blood Glucose (Mean) ([1]; day 3): 202.2 mg/dL
- Blood Glucose (Mean) ([1]; day 5): 220.7 mg/dL
- Blood Glucose (Mean) ([1]; day 8): 248.5 mg/dL
- Blood Glucose (Mean) ([1]; day 10): 252.1 mg/dL
- Blood Glucose (Mean) ([1]; day 12): 276.1 mg/dL
- Blood Glucose (Mean) ([1]; day 15): 278.6 mg/dL
- Blood Glucose (Mean) ([1]; day 17): 269.3 mg/dL
- Blood Glucose (Mean) ([1]; day 19): 280.7 mg/dL
- Blood Glucose (Mean) ([1]; day 22): 266.2 mg/dL
- Blood Glucose (Mean) ([1]; day 24): 256.3 mg/dL
- Blood Glucose (Mean) ([1]; day 26): 253 mg/dL
- Blood glucose levels as compared to vehicle treated group [1]: Significant differences; also recorded: lowered blood glucose levels significantly

Substance: Asp^1-Arg^2-Val^3-Ser^4-Ile^5-His^6-Cys^7 [PanCyte] (DRVSIHC; bridge 4-7)
- Blood glucose levels [2]: decreased blood glucose levels
- Plasma insulin levels as compared to vehicle treated control ([3]; 50 ug/kg weight): significantly higher levels of insulin
- Plasma insulin levels as compared to vehicle treated control ([3]; 500 ug/kg weight): significantly higher levels of insulin
- Insulin (Mean) ([3]; dose 50 μg (50 μg/kg body weight), day 14 after treatment): 1.217 ng/mL
- Insulin (Mean) ([3]; dose 50 μg (50 μg/kg body weight), day 28 after treatment): 1.244 ng/mL
- Insulin (Mean) [3, 4]: 1.016 ng/mL
- Insulin (Mean) [3, 5]: 0.902 ng/mL
- Blood Glucose (Mean) ([1]; day 1): 223 mg/dL
- Blood Glucose (Mean) ([1]; day 3): 205.3 mg/dL
- Blood Glucose (Mean) ([1]; day 5): 197.8 mg/dL
- Blood Glucose (Mean) ([1]; day 8): 213.2 mg/dL
- Blood Glucose (Mean) ([1]; day 10): 230.7 mg/dL
- Blood Glucose (Mean) ([1]; day 12): 234.8 mg/dL
- Blood Glucose (Mean) ([1]; day 15): 232.5 mg/dL
- Blood Glucose (Mean) ([1]; day 17): 240.3 mg/dL
- Blood Glucose (Mean) ([1]; day 19): 230 mg/dL
- Blood Glucose (Mean) ([1]; day 22): 237.1 mg/dL
- Blood Glucose (Mean) ([1]; day 24): 237.3 mg/dL
- Blood Glucose (Mean) ([1]; day 26): 232.6 mg/dL
- Blood glucose levels as compared to vehicle treated group [1]: Significant differences; also recorded: lowered blood glucose levels significantly

Substance: Asp^1-Arg^2-Val^3-Tyr^4-Ile^5-His^6-Pro^7 [TXA-127]
- Plasma insulin levels as compared to vehicle treated control ([3]; 500 ug/kg weight): significantly higher levels of insulin
- Insulin (Mean) [3, 4]: 1.097 ng/mL
- Insulin (Mean) [3, 5]: 0.954 ng/mL
- Glucose uptake (adipocytes): increased glucose uptake
